In patent US11252960B2 (KIMBERLY-CLARK WORLDWIDE, INC., priority 2017, dated 2022):

How the values were obtained:
[1] = format: physicochemical; details: pH 4.5
Description: This water was used as a test media for determining the solubility of test/reference items. Stock solutions of concentration 1 mg/mL for test items/reference items was prepared in methanol. The stock solution will be used for preparation of calibration curve standards. Calibration curve of test/reference items was prepared by serially dilution consisting of 4-5-6 concentrations in 96 well format. […] The method was as follows: Calibration curve of test items were prepared by serial dilution consisting of 8 concentrations. […] Water, 50:50). […] 40 mg of test items were weighed into tubes. […] The initial pH of the solubility samples were recorded. […] Then, the solutions were observed visually for any precipitation. […] An aliquot of the supernatant were diluted with equal volume of methanol. […] The samples were then transferred to UV plate and scanned at λmax of that particular test/reference item. Compound #12 was transferred to auto-sampler vials and submitted for LC-MS/MS analysis.

[2] = Determination of Dissociation Constant (pKa) by Potentiometric Titration Method; format: physicochemical; details: 22° C.
Description: Potentiometric Titration Method: A calibrated pH meter was used for the assay. 50 mL solution of each test/reference item solution (0.1 mg/mL) was added to four beakers (two for acid titration and two for base titration). 0.1 N Sodium hydroxide (NaOH) solution was prepared as titrant solution. The pH electrode was placed into the beaker containing test/reference item solution. The initial pH of the solution will be recorded. 100 μL of 0.1 N NaOH was added successively with stirring and the pH at each addition was recorded. Base titrations were carried out individually in duplicates until a sudden shift in the pH was observed.

[3] = test system: Escherichia coli (ATCC 8739); test: Anti-bacterial Minimum Inhibitory Concentration (MIC) Method, microbroth dilution; format: cell-based; details: CAMHB, 37° C., 24 hours, pH 4.5-adjusted stock
Description: (§1) Anti-Bacterial and Anti-Fungal Minimum Inhibitory Concentration (MIC) Method Method: Microbroth Dilution Method (96-well format). Test item: […] Solvent: Sterile MilliQ water and 0.1 M Citrate Buffer pH 4.5 Media used: • Bacterial: Cation-Adjusted Mueller-Hinton Broth (CAMHB) • Fungi: RPMI-1640 […] Fungi: • Incubation Temperature: • 25° C. (Candida albicans) • 35° C. (Aspergillus brasiliensis) • Incubation Time: 48 hours • Inoculum Size: 5×10^4 cfu/mL • Strains: • Candida albicans (ATCC 10231) • Aspergillus brasiliensis (ATCC 16404) • End point: Inhibition of growth, Spectrophotometer Reading @ 600 nm • Reference standards: […] All solubilized and pH 4.5-adjusted test compounds were filter-sterilized before subjecting to MIC study. […] All the strains were inoculated on their respective agar medium and incubated under conditions/durations detailed above. • Preparation of inoculum: • The bacterial colony suspension in 0.85% saline was adjusted to 1 McFarland's standard using […] which was further diluted to 1:100 in CAMHB. The fungal suspension for inoculation was prepared in 0.85% saline from 6 days old culture (for mold, A. brasiliensis) and from 2 days old culture (for yeast, C. albicans) from Sabouraud Dextrose agar medium. […] Micro titer plates were prepared as per the CLSI recommendations. One hundred and seventy five microliters of Cation-adjusted Muller Hinton Broth (CAMHB) was added to the first column of a 96 well flat bottom plate, which is the media control. Second column is for the stocks of the test compounds and reference standards from which dilutions are made. Then 175 μL of CAMHB was added to the 5th, 8th and 11th columns, 75 μL of CAMHB to the 4th, 7th and 10th columns and 50 μL of CAMHB to the 3rd, 6th and 9th columns and the last column was the organism control.

[4] = test system: Pseudomonas aeruginosa (ATCC 9027); test: as above; format: cell-based; details: CAMHB, 37° C., 24 hours, pH 4.5-adjusted stock
Description: as §1

[5] = test system: Burkholderia cepacia (ATCC 25416); test: as above; format: cell-based; details: CAMHB, 37° C., 24 hours, pH 4.5-adjusted stock
Description: as §1

[6] = test system: Staphylococcus aureus (ATCC 6538); test: as above; format: cell-based; details: CAMHB, 37° C., 24 hours, pH 4.5-adjusted stock
Description: as §1

[7] = test system: Aspergillus brasiliensis (ATCC 16404); test: Anti-fungal Minimum Inhibitory Concentration (MIC) Method, microbroth dilution; format: cell-based; details: RPMI-1640, 35° C., 48 hours, pH 4.5-adjusted stock
Description: (§2) Anti-Bacterial and Anti-Fungal Minimum Inhibitory Concentration (MIC) Method Method: Microbroth Dilution Method (96-well format). Test item: […] Solvent: Sterile MilliQ water and 0.1 M Citrate Buffer pH 4.5 Media used: • Bacterial: Cation-Adjusted Mueller-Hinton Broth (CAMHB) • Fungi: RPMI-1640 Fungi: • Incubation Temperature: • 25° C. (Candida albicans) • 35° C. (Aspergillus brasiliensis) • Incubation Time: 48 hours • Inoculum Size: 5×10^4 cfu/mL • Strains: • Candida albicans (ATCC 10231) • Aspergillus brasiliensis (ATCC 16404) • End point: Inhibition of growth, Spectrophotometer Reading @ 600 nm • Reference standards: […] All solubilized and pH 4.5-adjusted test compounds were filter-sterilized before subjecting to MIC study. […] All the strains were inoculated on their respective agar medium and incubated under conditions/durations detailed above. • Preparation of inoculum: • The bacterial colony suspension in 0.85% saline was adjusted to 1 McFarland's standard using […] which was further diluted to 1:100 in CAMHB. The fungal suspension for inoculation was prepared in 0.85% saline from 6 days old culture (for mold, A. brasiliensis) and from 2 days old culture (for yeast, C. albicans) from Sabouraud Dextrose agar medium. […] Micro titer plates were prepared as per the CLSI recommendations. One hundred and seventy five microliters of Cation-adjusted Muller Hinton Broth (CAMHB) was added to the first column of a 96 well flat bottom plate, which is the media control. Second column is for the stocks of the test compounds and reference standards from which dilutions are made. Then 175 μL of CAMHB was added to the 5th, 8th and 11th columns, 75 μL of CAMHB to the 4th, 7th and 10th columns and 50 μL of CAMHB to the 3rd, 6th and 9th columns and the last column was the organism control.

[8] = test system: Candida albicans (ATCC 10231); test: as above; format: cell-based; details: RPMI-1640, 25° C., 48 hours, pH 4.5-adjusted stock
Description: as §2

[9] = ultrapure water, pH 4.5, Table 1, 0.1 mg/ml
[10] = ultrapure water, pH 4.5, Table 3, 0.1 mg/ml

Row | Compound | Solubility (wt %) [1] [wt %] | pKa [2, 9] | MIC (%) E. coli ([3]; Table 1) [%] | MIC (%) P. aeruginosa ([4]; Table 1) [%] | MIC (%) B. cepacia ([5]; Table 1) [%] | MIC (%) S. Aureus ([6]; Table 1) [%] | MIC (%) A. brasiliensis ([7]; Table 1) [%] | MIC (%) C. albicans ([8]; Table 1) [%] | MIC (%) E. coli ([3]; Table 4) [%] | MIC (%) P. aeruginosa ([4]; Table 4) [%] | MIC (%) B. cepacia ([5]; Table 4) [%] | MIC (%) S. Aureus ([6]; Table 4) [%] | MIC (%) A. brasiliensis ([7]; Table 4) [%] | MIC (%) C. albicans ([8]; Table 4) [%] | other results
1 | O=C(O)c1ccc(OCCO)cc1 [Compound 1, 4-(2-hydroxyethoxy) benzoic acid] | 0.2779 | 4.95 | 0.165 | 0.082 | 0.082 | 0.041 | >0.165 | >0.165 |  |  |  |  |  |  | 
2 | O=C(O)c1ccc(OCC(O)CO)cc1 (centres unmarked) [Compound 2, 4-(2,3-dihydroxypropoxy) benzoic acid] | 0.343 | 4.6 | 0.181 | 0.09 | 0.09 | 0.045 | >0.181 | >0.181 |  |  |  |  |  |  | 
3 | O=C(O)c1ccc(O[C@@H]2O[C@H](CO)[C@H](O)[C@H](O)[C@H]2O)cc1 [Compound 3, 4-{[(3R,4S,5R,6R)-3,4,5-trihydroxy-6-(hydroxymethyl)oxan-2-yl]oxy}benzoic acid] |  | 4.5 | >0.87 | >0.87 | >0.87 | >0.87 | >0.87 | >0.87 |  |  |  |  |  |  | MIC (%) E. coli ([3]; Table 1, listed as #3): > 0.87%; MIC (%) P. aeruginosa ([4]; Table 1, listed as #3): > 0.87%; MIC (%) B. cepacia ([5]; Table 1, listed as #3): > 0.87%; MIC (%) S. Aureus ([6]; Table 1, listed as #3): > 0.87%; MIC (%) A. brasiliensis ([7]; Table 1, listed as #3): > 0.87%; MIC (%) C. albicans ([8]; Table 1, listed as #3): > 0.87%
4 | O=C(O)c1ccc(OC2OC(CO)C(O)C2O)cc1 (centres unmarked) [Compound 4, 4-{[3,4-dihydroxy-5-(hydroxymethyl)oxolan-2-yl]oxy}benzoic acid] | >1.00 | 4.6 | 1 | 0.5 | 0.25 | 0.125 | >1 | >1 |  |  |  |  |  |  | 
5 | O=C(O)c1ccc(OC2CC(O)C(CO)O2)cc1 (centres unmarked) [Compound 5, 4-{[4-hydroxy-5-(hydroxymethyl)oxolan-2-yl]oxy}benzoic acid] | 0.11 | 5.6 | >0.069 | 0.034 | 0.034 | 0.017 | >0.069 | >0.069 |  |  |  |  |  |  | 
6 | O=C(O)c1ccc(OCCCCO)cc1 [Compound 6, 4-(4-hydroxybutoxy) benzoic acid] | 0.0667 | 4.6 | 0.04 | 0.04 | 0.02 | 0.01 | >0.04 | >0.04 |  |  |  |  |  |  | 
7 | CC(O)COc1ccc(C(=O)O)cc1 (centres unmarked) [Compound 7, 4-(2-hydroxypropoxy) benzoic acid] | 0.123 | 5.6 | 0.079 | 0.039 | 0.02 | 0.02 | >0.079 | >0.079 |  |  |  |  |  |  | 
8 | O=C(OCCO)c1ccccc1 [Compound 8, Benzoic acid 2-hydroxyethyl ester] | >1.0 |  |  |  |  |  |  |  | 0.475 | 0.237 | 0.118 | 0.475 | 0.118 | 0.475 | pKa [2, 10]: > 7
9 | O=C(OCC(O)CO)c1ccccc1 (centres unmarked) [Compound 9, Benzoic acid 2,3-dihydroxypropyl ester] | >1.0 |  |  |  |  |  |  |  | 0.5 | 0.5 | 0.25 | 0.25 | >1 | >1 | pKa [2, 10]: > 7; MIC (%) A. brasiliensis ([7]; Table 4, listed as #9): > 1.0%; MIC (%) C. albicans ([8]; Table 4, listed as #9): > 1.0%
10 | O=C(OCCCCO)c1ccccc1 [Compound 10, Benzoic acid 4-hydroxy-butyl ester] | 0.47 |  |  |  |  |  |  |  | 0.115 | 0.115 | 0.057 | 0.057 | 0.028 | 0.115 | pKa [2, 10]: > 7
11 | O=C(OCCCO)c1ccccc1 [Compound 11, Benzoic acid 3-hydroxy-propyl ester] | 0.55 |  |  |  |  |  |  |  | 0.272 | >0.272 | 0.136 | 0.272 | 0.068 | 0.136 | pKa ([2]; pH 4.5, Table 3, 0.1 mg/ml): > 7
12 | benzoic acid [reference compound] |  |  | 0.07 | 0.068 | 0.034 | 0.068 | 0.137 | 0.137 | 0.07 | 0.068 | 0.034 | 0.068 | 0.137 | 0.137 | 
